Where “and” joins values, the source holds several entries; their conditions need not be identical. Equal entries are not always repeated.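 A five-concentration, 48-hour dose response in 96-well plates underlies each endpoint, interpolated linearly between surrounding concentrations. GI50: concentration for 50% inhibition of growth. TGI is the concentration that stops growth completely.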
Legend:
Assay in all cases: inhibition of tumour cell growth, NCI panel, 48 h
[1] = tested on: MOLT-4 leukemia
[2] = tested on: OVCAR-5 ovarian
[3] = tested on: NCI/ADR-RES ovarian
[4] = tested on: NCI-H460 lung
[5] = tested on: MDA-MB-435
[6] = tested on: DU-145 prostate
[7] = tested on: COLO 205 colon
[8] = tested on: U251 CNS
[9] = tested on: CAKI-1 renal
[10] = tested on: SF-539 CNS

| Compound | TGI [1] | TGI [2] | TGI [3] | TGI [4] | TGI [5] | TGI [6] | TGI [7] | TGI [8] | TGI [9] | TGI [10] | GI50 [2] | GI50 [8] |
| --- | --- | --- | --- | --- | --- | --- | --- | --- | --- | --- | --- | --- |
| N#Cc1c(-c2ccccc2)cc(-c2ccc(Cl)cc2)[nH]c1=S | > 100 µM | > 100 µM | > 100 µM | > 100 µM | 43.1 µM | > 100 µM | 71.1 µM | 48.5 µM | > 100 µM | – | – | – |
| O=C(N/N=C/c1ccc(Br)cc1)N/N=C/c1ccc(Br)cc1 | 30.2 µM | 95.8 µM | 29.6 µM | – | 76 µM | > 100 µM | > 100 µM | 18.5 µM | 18 µM | – | – | – |
| CCON1CC(C(=O)OC)=C(O)C1=O | > 100 µM | > 100 µM | > 100 µM | > 100 µM | > 100 µM | > 100 µM | > 100 µM | > 100 µM | > 100 µM | – | – | – |
| CC(=O)OCc1c(O)c2c(c(O)c1COC(C)=O)C(=O)C=CC2=O | 15.1 µM | 30.9 µM | – | – | – | – | 10.5 µM | 28.5 µM | 21.8 µM | 35.7 µM | – | – |
| O=c1cc(-c2ccccc2)oc2c(-c3cc(Cl)cc4c(=O)cc(-c5ccccc5)oc34)cc(Cl)cc12 | 52.1 µM | > 100 µM | > 100 µM | > 100 µM | > 100 µM | > 100 µM | > 100 µM | > 100 µM | – | 44.4 µM | – | – |
| O=c1[nH]c(=O)n(C2CC(O)C(CO)O2)cc1OCc1ccccc1 (configuration not stated) | > 100 µM | > 100 µM | > 100 µM | > 100 µM | > 100 µM | > 100 µM | > 100 µM | > 100 µM | > 100 µM | – | – | – |
| CCOC(=O)/C(O)=C1\C(=O)N(C)C(=O)C1c1cccc(OC)c1 (configuration not stated) | > 100 µM | > 100 µM | > 100 µM | > 100 µM | – | – | > 100 µM | > 100 µM | > 100 µM | > 100 µM | – | – |
| Cc1cnc2c(c1)C(=O)C1=C(C2=O)C2OC(=O)CC2OC1(C)C (configuration not stated) | – | 0.951 µM | – | 2.28 µM | 0.912 µM | 3.02 µM | 0.326 µM | 0.519 µM | 0.405 µM | 0.575 µM | – | – |
| CN(C)CCNC(=O)c1cccc2nc(-c3ccccc3)oc12 | > 89.5 µM | > 100 µM | 99.6 µM | > 100 µM | – | – | 42.8 µM | > 100 µM | – | > 100 µM | – | – |
| CCCSc1nc(-c2ccc(OC)cc2)c(C#N)c(=O)n1C1OC(COC(C)=O)C(OC(C)=O)C(OC(C)=O)C1OC(C)=O (configuration not stated) | > 100 µM | > 100 µM and 48.8 µM | – | > 100 µM | – | – | > 100 µM | > 100 µM and 34.2 µM | – | > 100 µM | > 100 µM and 21.2 µM | > 100 µM and 17.9 µM |
| C[C@H]1SC(c2ccc(Cl)cc2Cl)N(NC(=O)c2ccncc2)C1=O (some centres not stated) | – | > 100 µM | > 100 µM | > 100 µM | 75.3 µM | > 100 µM | > 100 µM | > 100 µM | > 100 µM | – | – | – |
| C1=C\SS/C=C\SS/1 | 78.7 µM | > 100 µM | > 100 µM | 80 µM | > 100 µM | > 100 µM | > 100 µM | > 100 µM | – | – | – | – |
| O=C(c1ccncc1)C1C(=O)c2ccccc2C1C1(O)c2ccccc2CC1C(O)c1ccncc1 (configuration not stated) | 69.7 µM | > 100 µM | > 100 µM | > 100 µM | 47.9 µM | – | > 100 µM | > 100 µM | > 100 µM | > 100 µM | – | – |
| CC(=O)OC1C(COC(=O)c2ccccc2)OC(Nc2ncc(-c3ccc(Br)cc3)s2)C(OC(=O)c2ccccc2)C1OC(=O)c1ccccc1 (configuration not stated) | > 100 µM | > 100 µM | – | > 100 µM | > 100 µM | > 100 µM | > 100 µM | > 100 µM | – | – | – | – |
| CC1(C)[C@H]2CC[C@@]13C(=O)N1C(=O)O[C@@H]([C@H]1Cl)C(Cl)(COCc1ccccc1)C(=O)OCCO[C@H]3C2 (some centres not stated) | 76.9 µM | > 100 µM | > 100 µM | > 100 µM | > 100 µM | – | 36.6 µM | > 100 µM | > 100 µM | > 100 µM | – | – |
| NS(=O)(=O)c1cccc(NC(=S)NC(=O)Nc2ccc(Cl)c(Cl)c2)c1 | 37.6 µM | 84 µM | 36.1 µM | 44.6 µM | – | 97.9 µM | 35.4 µM | 39.6 µM | – | 38.1 µM | – | – |
| CN(C)CC1CCC(CN(C)C)C1=O (configuration not stated) | 4.03 µM | 20.3 µM | 63.8 µM | 45.6 µM | > 100 µM | – | 1.41 µM | 50.2 µM | 1.95 µM | 33.3 µM | – | – |
| CCOC(=O)c1nc2cc(C(F)(F)F)ccc2nc1Nc1ccc(C(=O)NC(C(=O)OCC)C(=O)OCC)cc1 | > 100 µM | > 100 µM | – | > 100 µM | > 100 µM | > 100 µM | > 100 µM | 32 µM | 37 µM | – | – | – |
| CN(C)CCC(=O)/C=C\c1ccccc1 | 33.1 µM | 35.7 µM | – | 37.5 µM | – | – | 29.3 µM | 31.6 µM | 32.7 µM | 30.7 µM | – | – |
| COc1ccc(C2c3cc4c(cc3OC(N3CCOCC3)C2C)OCO4)c(OC)c1OC (configuration not stated) | 34 µM | 74.3 µM | > 100 µM | 51.3 µM | 7.01 µM | – | 33.6 µM | – | 9.74 µM | 27.7 µM | – | – |

Reference: PubChem BioAssay (NCI)
